Laboratory results reported in article PMC11251990 (Frontiers in Pharmacology, 2024).

Assays:
Assay type in all cases: biochemical
[1] = molecular target: T1, dipeptidyl peptidase 1 (DPP1, cathepsin C) (Canis lupus, UniProt O97578); experiment: fluorogenic H-Gly-Arg-AMC cleavage assay in crude white blood cell lysate; details: read-out: DPP1 / Dog
T1 construct: gene CTSC; native DPP1 in dog white blood cell lysate

[2] = molecular target: T2, dipeptidyl peptidase 1 (DPP1, cathepsin C) (Mus musculus, UniProt P97821); experiment: fluorogenic H-Gly-Arg-AMC cleavage assay with recombinant enzyme
T2 construct: gene Ctsc; recombinant mouse DPP1
T2 sequence (P97821 25-134): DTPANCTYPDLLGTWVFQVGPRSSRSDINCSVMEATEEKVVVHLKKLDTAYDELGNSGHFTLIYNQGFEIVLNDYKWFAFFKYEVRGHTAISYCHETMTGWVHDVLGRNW
T2 sequence (P97821 231-462): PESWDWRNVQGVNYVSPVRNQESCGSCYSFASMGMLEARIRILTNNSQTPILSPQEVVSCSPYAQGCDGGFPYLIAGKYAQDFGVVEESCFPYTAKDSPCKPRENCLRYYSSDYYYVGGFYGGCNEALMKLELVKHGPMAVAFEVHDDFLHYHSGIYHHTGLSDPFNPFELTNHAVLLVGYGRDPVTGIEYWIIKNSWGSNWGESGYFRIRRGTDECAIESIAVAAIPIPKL

[3] = molecular target: T3, dipeptidyl peptidase 1 (DPP1, cathepsin C) (Rattus norvegicus, UniProt P80067); experiment: as above
T3 construct: gene Ctsc; recombinant rat DPP1, proteolytically processed into mature form with cathepsin L
T3 sequence (P80067 25-134): as the sequence (P97821 25-134) above, with S23H, S24P, D27H, A35P, V42I, L54V, H59Y, R86K, H88S, T89R counted along it
T3 sequence (P80067 230-393): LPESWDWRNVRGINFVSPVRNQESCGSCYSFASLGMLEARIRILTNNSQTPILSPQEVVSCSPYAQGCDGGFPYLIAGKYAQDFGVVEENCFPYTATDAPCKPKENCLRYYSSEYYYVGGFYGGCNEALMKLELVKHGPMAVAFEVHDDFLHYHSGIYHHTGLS
T3 sequence (P80067 394-462): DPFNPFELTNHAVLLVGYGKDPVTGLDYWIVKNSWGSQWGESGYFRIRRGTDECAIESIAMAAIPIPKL

T1 sequence (O97578 1-109): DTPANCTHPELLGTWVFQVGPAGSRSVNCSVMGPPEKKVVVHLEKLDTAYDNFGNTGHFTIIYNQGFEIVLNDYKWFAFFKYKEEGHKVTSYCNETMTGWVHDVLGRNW
T1 sequence (O97578 200-435): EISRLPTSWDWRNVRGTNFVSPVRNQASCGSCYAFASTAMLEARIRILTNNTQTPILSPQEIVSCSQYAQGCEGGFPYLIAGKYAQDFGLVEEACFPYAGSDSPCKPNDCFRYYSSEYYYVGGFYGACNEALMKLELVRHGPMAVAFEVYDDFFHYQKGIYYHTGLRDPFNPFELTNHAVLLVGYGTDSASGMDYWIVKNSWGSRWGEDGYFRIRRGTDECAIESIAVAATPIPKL

`Cn1c(=O)oc2ccc(-c3ccc(C[C@@H](C#N)NC(=O)[C@@H]4CNCCCO4)cc3)cc21` [brensocatib] showed an IC50 [1] of 38.1 nM, an IC50 [2] of 24.1 nM and an IC50 [3] of 51.1 nM.
